Patent publication US10550383B2, “Galvanotaxis assay for quantitative assessment of the metastatic potential of cancer cells” (Ohio State Innovation Foundation, priority 2013, dated 2020)

Columns and labels:
Assay type in all cases: cell-based, human
SCP2 cells [1] = assay: modified transmembrane assay, chemotaxis of SCP2 cells; details: 100 ng/mL in lower chamber, 8 hours, no induced electric field; Control vs SDF control p=0.015, Control vs EGF control p=0.001 (FIG. 4)
Method: Highly metastatic breast cancer cells known as SCP2, a single cell population derived from MDA-MB-231 that is known to metastasize to the bone, were cultured in Dulbecco's Modified Eagle Medium (DMEM; Life Technologies, Gaithersburg, Md., USA), supplemented with 10% heat inactivated fetal bovine serum (FBS), 5 U/mL penicillin, and 5 mg/mL streptomycin. The SCP2 cells were placed in the upper chamber, and both compartments contained 0.1% FBS-DM. The entire apparatus (holder, coil, modified transmembrane chambers with Transwell inserts and cells) was placed in a 37° C. culture incubator with humidified air containing 5% CO2. The leads of the coil were connected to the function generator placed outside the incubator. The cells were allowed to migrate for 8 hours, and then were fixed and stained using Hema-3 stain kit according to the manufacturer's instructions. The number of migratory cells per membrane was then measured using light microscopy by counting the total number of cells in each of five contiguous images spanning radially outward (five fields) from the coil (FIG. 9). […]
In one embodiment, low passage SCP2 cells were cultured in Dulbecco's Modified Eagle's Media (DMEM) containing 10% fetal bovine serum (FBS) and 5 U/mL penicillin, and 5 mg/mL streptomycin at 37° C. in a humidified culture incubator supplied with 5% CO2. […] The cells were counted using a hemocytometer. […]

MCF-10A cells = assay: modified transmembrane assay, migration of MCF-10A cells; details: 50 ng/mL EGF in lower chamber, 16 hours, no induced electric field (-E+EGF, FIG. 22)
Method: Weak a.c. electric fields hinder chemotaxis of “normal” breast epithelial cells. Experiments on combined chemotaxis and electrotaxis were performed with MCF10A cells in the same modified transmembrane assay in order to examine the effects of the induced a.c. electric field in hindering chemotaxis of non-transformed cells. MCF-10A cells are a non-transformed epithelial cell line derived from human fibrocystic mammary tissue. These cells are considered “normal” breast epithelial cells as they have a karyotype that is nearly diploid, are dependent on externally supplied growth factors for migration, and lack the ability to form tumors in nude mice. The growth factor EGF was used as an exogenous agent to induce MCF-10A cells to migrate in the modified transmembrane assay, as in the case of the SCP2 cells. No migration of MCF-10A cells was observed without EGF in the bottom chamber. […]
In one embodiment, MCF10A cells were cultured in Dulbecco's Modified Eagle's Media (DMEM) F12 containing 5% horse serum (HS), 20 ng/ml epidermal growth factor (EGF), 0.5 mg/ml hydrocortisone, 100 ng/ml cholrea toxin, 10 μg/ml insulin and 5 U/mL penicillin, and 5 mg/mL streptomycin at 37° C. in a humidified culture incubator supplied with 5% CO2. […] After allowing migration for 16 hours, cells were stained, photographed and counted as described for the preparation of the SCP2 cells. […]

SCP2 cells [2] = assay: visualization of actin filaments by phalloidin staining and fluorescence microscopy; details: EGF 100 ng/mL, one hour, no induced electric field (FIG. 6a middle panel)
Method: The present invention allows the visualization of actin filaments that form the cytoskeleton of the SCP2 cells and play a crucial role in cell migration, when induced electric fields are applied in a non-contact manner as described earlier (FIG. 6). The images are quantified to determine the actin filament distribution within the cell as represented by the fluorescence intensity. In one embodiment, SCP2 cells are plated on a single-well, 60 mm diameter culture plate, allowed to migrate freely for an hour, and then fixed and stained with phalloidin-fluorophore conjugate for visualization of the actin filaments (FIG. 6a, left panel). […] These images have also been quantified after importing into MATLAB (FIGS. 18-20). […]
Analysis of actin filament distribution: images obtained from phalloidin and fluorescence microscopy are imported into MATLAB (2014a, Mathworks, Inc., Massachusetts, U.S.A.). […] Intensities are then separated into red, green, and blue so that the background and nuclei intensities may be filtered out and only the green fluorescence from the actin filaments is extracted. Actin fluorescence intensities are analyzed versus cell length (longer dimension being the length), and averaged.

| Substance | migration of SCP2 cells (chemotaxis) versus control (SCP2 cells [1]) | migration of MCF-10A cells (MCF-10A cells) | actin filament polymerization in SCP2 cells (SCP2 cells [2]) |
| --- | --- | --- | --- |
| SDF-1α | chemotaxis is well enabled |  |  |
| EGF: growth factor placed in the lower chamber to induce cell migration | chemotaxis is well enabled | strongly promotes migration | polymerization of actin filaments can be observed at one end of some cells |
